Results reported in patent EP4678638A1, “NEW E3 UBIQUITIN LIGASE LIGAND, PROTEIN DEGRADATION AGENT AND USE THEREOF” (priority 2023, dated 2024).
Where two headings read alike, the source gives them in different places.

Experiments:
[1] = test system: H1975; assay: CCK-8 proliferation, NCI-H1975 (H1975); type: cell-based, Human; conditions: Homo sapiens, NCI-H1975; CCK-8; 96 hours; read-out: Inhibitory activity (IC50) on tumor cell proliferation, H1975
Method in brief: (§1)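 CCK-8 viability readout; IC50 from growth-inhibition curve fitting. Cells plated, dosed 24h later with a 10-point series, top 10µM, 5-fold steps. Culture at 37°C, 5% CO2.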

[2] = test system: H2228; assay: CCK-8 proliferation, NCI-H2228 (H2228); type: cell-based; conditions: Homo sapiens, NCI-H2228
Method in brief: as §1

[3] = test system: PC-9; assay: CCK-8 proliferation, PC-9; type: cell-based, Human; conditions: Homo sapiens, PC-9; CCK-8; 96 hours; read-out: Inhibitory activity (IC50) on tumor cell proliferation, PC-9
Description: (§2) The tumor cells used herein were cultured in a cell culture medium listed in table A1 at 37°C in an incubator with 5% CO2. Prior to experimentation, all cell lines used were correctly identified by STR profiling, and tested negative for mycoplasma contamination using a mycoplasma detection kit through routine screenings. Table A1. Tumor cells and cell culture medium used in the present disclosure
(§3) IC50 values of the compounds of the present disclosure (including the compounds in Table 1, and compounds of examples) were measured using the Meilun Cell Counting Kit-8 kit from Dalian Meilun Biotech Co., Ltd. Assay details are as follows: tumor cells were seeded in a 96-well plate at a density listed in Table A2. After 24h, 100 µL of the inoculated cells were treated with 0.5µL of the compounds of the present disclosure (including the compounds in Tables 1 and 2, and compounds of examples) at 10 different successively decreasing concentrations (starting at the highest concentration of 10µM; 5-fold serial dilutions). After the cells were treated with the compounds of the present disclosure for a period of time, the cell viability detection reagent was added to the culture medium for cell viability assessment according to the instructions provided with the CCK-8 kit. […] The growth inhibition of the compounds of the present disclosure on cells was plotted by Prism Graphpad software, and the IC50 values of the compounds of the present disclosure were calculated therefrom. […] Seeding protocol and treatment time for tumor cells

[4] = test system: SW620; assay: CCK-8 proliferation, SW620; type: cell-based; conditions: Homo sapiens, SW-620; CCK-8; 96 hours; read-out: Inhibitory activity (IC50) on tumor cell proliferation, SW620
Description: as §2, §3

[5] = target: T1, FAK (Homo sapiens, UniProt Q05397); assay: Western blot degradation of FAK; type: cell-based; conditions: Table D7
T1 construct: evaluate the effects of the compounds of the present disclosure on the expression of target proteins in cells; endogenous in cells
Description: Conventional Western blot assay was performed to evaluate the effects of the compounds of the present disclosure on the expression of target proteins in cells.
(1) Cell Seeding and Protein Harvesting: The selected cells were processed according to the cell seeding procedure and protein harvesting procedure in Table III-2. Table III-2 Cell Seeding and Protein Harvesting Procedures
(2) To the collected supernatant, 5X SDS sample loading buffer was added, followed by denaturation at 95°C for 5 minutes. The denatured samples were then separated by SDS-PAGE electrophoresis on a polyacrylamide gel. Proteins were transferred to a nitrocellulose membrane (0.45 µm NC membrane), blocked with blocking buffer at room temperature for 1 hour, and subjected to antibody incubation and development procedures according to the antibody manufacturer's instructions (Cell Signaling Technology).
Half-Maximal Degradation Concentration value (the drug concentration required for degrading proteins by 50%, abbreviated as DC50) reads method: comparing the grayscale values of Western blot bands from drug-treated samples with those from blank DMSO-treated controls, and identifying the drug concentration range at which the grayscale value is half that of the DMSO-treated control bands.
DC50 values can be calculated using ImageJ software to measure grayscale values of Western blot bands from drug-treated samples. The concentration-response curve is fitted to estimate the drug concentration corresponding to half the grayscale value.
Target protein remaining (%) refers to the percentage of target protein remaining in hPBMC cells after treatment with protein degrader compounds.
Calculation method for target protein remaining (%): Use ImageJ software to measure grayscale values of Western blot bands from drug (protein degrader)-treated samples. The grayscale value of drug-treated bands is divided by that of internal control protein bands, and the resulting quotient is normalized to obtain the relative percentage of remaining target protein after protein degrader treatment.
Target protein degradation rate (%) = 100% - target protein remaining (%).

[6] = test system: CCRF-CEM; assay: CCK-8 proliferation, CCRF-CEM; type: cell-based, Human; conditions: Homo sapiens, CCRF-CEM; CCK-8; 96 hours; read-out: Inhibitory activity (IC50) on tumor cell proliferation, CCRF-CEM
Method in brief: as §1

[7] = target: T2, human Cereblon WT GST-tagged protein (Homo sapiens, UniProt Q96SW2); assay: CRBN binding, HTRF (CEREBLON BINDING kit); conditions: Table II-2, CRBN binding screening, HTRF; for inhibition at 0.5 µM: read-out: Inhibition rate (%) at 0.5µM; for inhibition at 2 µM: read-out: Inhibition rate (%) at 2 µM
T2 construct: purchased CISBIO 64BDCRBNPEH
Method in brief: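 After 3 h at room temperature, emission at 665 and 620 nm was measured in a homogeneous time-resolved fluorescence format. Compounds competed with a Thalidomide-Re probe for GST-tagged wild-type human CRBN, which was labelled with a Eu anti-GST antibody.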

[8] = test system: Jurkat; assay: CCK-8 proliferation, Jurkat; type: cell-based, Human; conditions: Homo sapiens, Jurkat; CCK-8; 96 hours; read-out: Inhibitory activity (IC50) on tumor cell proliferation, Jurkat
Description: as §2, §3

[9] = test system: MCF7; assay: CCK-8 proliferation, MCF7 (MCF-7); type: cell-based; conditions: Homo sapiens, MCF7; Table B6, compounds designed based on the ALK inhibitors; MCF-7 cells; read-out: Inhibitory activity (IC50, nM) on tumor cell proliferation, MCF-7
Method in brief: as §1

[10] = test system: SR; assay: CCK-8 proliferation, SR; type: cell-based, Human; conditions: Homo sapiens
Method in brief: as §1

[11] = test system: MDA-MB-231; assay: CCK-8 proliferation, MDA-MB-231; type: cell-based; conditions: Homo sapiens; Table B6, compounds designed based on the ALK inhibitors; MDA-MB-231 cells; read-out: Inhibitory activity (IC50, nM) on tumor cell proliferation, MDA-MB-231
Description: as §2, §3

[12] = test system: MV-4-11; assay: CCK-8 proliferation, MV-4-11; type: cell-based, Human; conditions: Homo sapiens, MV4-11; CCK-8; 72 or 96 hours; read-out: Inhibitory activity (IC50) on tumor cell proliferation, MV-4-11
Description: as §2, §3

[13] = Table B6, compounds designed based on the ALK inhibitors, SR cells, read-out: Inhibitory activity (IC50, nM) on tumor cell proliferation, SR
[14] = Table B6, compounds designed based on the ALK inhibitors, H2228 cells, read-out: Inhibitory activity (IC50, nM) on tumor cell proliferation, H2228
[15] = SR, CCK-8, 72 hours, read-out: Inhibitory activity (IC50) on tumor cell proliferation, SR

T1 sequence (Q05397 whole entry, species assumed): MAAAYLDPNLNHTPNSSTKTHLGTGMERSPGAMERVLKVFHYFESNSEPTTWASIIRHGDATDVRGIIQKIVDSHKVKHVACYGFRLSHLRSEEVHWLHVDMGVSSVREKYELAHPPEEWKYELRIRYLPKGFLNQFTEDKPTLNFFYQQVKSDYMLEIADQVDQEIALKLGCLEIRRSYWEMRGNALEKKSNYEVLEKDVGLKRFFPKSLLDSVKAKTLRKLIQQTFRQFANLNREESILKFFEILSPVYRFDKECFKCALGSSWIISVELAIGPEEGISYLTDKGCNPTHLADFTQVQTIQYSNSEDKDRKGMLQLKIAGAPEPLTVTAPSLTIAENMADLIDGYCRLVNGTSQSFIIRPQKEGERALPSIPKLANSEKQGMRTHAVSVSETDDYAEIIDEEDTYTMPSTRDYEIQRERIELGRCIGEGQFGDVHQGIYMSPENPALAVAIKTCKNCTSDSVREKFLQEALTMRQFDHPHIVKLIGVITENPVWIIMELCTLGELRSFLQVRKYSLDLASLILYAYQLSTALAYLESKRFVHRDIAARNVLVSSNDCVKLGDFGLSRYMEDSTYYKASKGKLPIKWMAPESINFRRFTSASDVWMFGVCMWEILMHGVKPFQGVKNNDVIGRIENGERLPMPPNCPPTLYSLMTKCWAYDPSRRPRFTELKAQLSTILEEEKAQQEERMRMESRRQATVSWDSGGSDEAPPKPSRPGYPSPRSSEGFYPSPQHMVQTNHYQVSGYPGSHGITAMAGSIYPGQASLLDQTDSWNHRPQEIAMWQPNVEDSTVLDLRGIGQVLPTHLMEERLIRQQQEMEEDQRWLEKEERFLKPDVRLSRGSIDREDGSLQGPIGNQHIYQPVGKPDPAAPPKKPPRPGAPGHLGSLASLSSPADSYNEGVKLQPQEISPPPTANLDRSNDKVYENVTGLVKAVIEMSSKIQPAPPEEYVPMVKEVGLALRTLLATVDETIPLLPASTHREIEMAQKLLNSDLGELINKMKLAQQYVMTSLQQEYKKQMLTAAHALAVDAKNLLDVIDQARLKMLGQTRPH
T2 sequence (Q96SW2 whole entry): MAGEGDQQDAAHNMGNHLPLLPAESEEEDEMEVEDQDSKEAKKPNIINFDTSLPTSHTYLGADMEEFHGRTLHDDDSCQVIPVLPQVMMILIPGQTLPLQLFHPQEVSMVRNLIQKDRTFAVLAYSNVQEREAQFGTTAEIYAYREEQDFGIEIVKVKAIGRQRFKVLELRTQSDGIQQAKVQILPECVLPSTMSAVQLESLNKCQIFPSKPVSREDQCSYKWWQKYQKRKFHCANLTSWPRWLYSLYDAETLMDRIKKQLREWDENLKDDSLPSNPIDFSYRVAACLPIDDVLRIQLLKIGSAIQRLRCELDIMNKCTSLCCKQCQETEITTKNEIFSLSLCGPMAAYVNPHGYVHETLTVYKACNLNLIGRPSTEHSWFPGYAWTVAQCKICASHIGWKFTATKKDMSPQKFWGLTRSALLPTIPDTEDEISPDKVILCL

Compound	IC50 [4] [nM]	Degradation of substrate protein FAK (substrate protein remaining %) [5]	inhibition at 0.5 µM [7] [%]	inhibition at 2 µM [7] [%]	also measured
NC(=O)c1ncc(N2CCCCC2)nc1Nc1ccc(C2CCN(Cc3ccc(N4CCC(=O)NC4=O)cc3F)CC2)cc1 [GT-04790, 3-((4-(1-(4-(2,4-dioxotetrahydropyrimidin-1(2H)-yl)-2-fluorobenzyl)piperidin-4-yl)phenyl)amino)-5-(piperidin-1-yl)pyrazine-2-carboxamide]	500 to 1000	–	–	–	IC50 [1]: 500 to 1000 nM; IC50 ([2]; CCK-8, 96 hours, read-out: Inhibitory activity (IC50) on tumor cell proliferation, H2228): 100 to 500 nM; IC50 [3]: 100 to 500 nM
CNC(=O)c1ccccc1Nc1cc(Nc2ccc(N3CCC(N4CCN(Cc5ccc(C6CCC(=O)NC6=O)cc5)CC4)CC3)cc2OC)ncc1C(F)(F)F (stereo not shown) [GT-03599, 2-((2-((4-(4-(4-(4-(2,6-dioxopiperidin-3-yl)benzyl)piperazin-1-yl)piperidin-1-yl)-2-methoxyphenyl)amino)-5-(trifluoromethyl)pyridin-4-yl)amino)-N-methylbenzamide]	–	A (A is defined as 0% ≤ substrate protein remaining % ≤ 80%)	–	–	IC50 [6]: 100 to 500 nM
COc1cc(C(=O)NC2CCN(Cc3ccc(C4CCC(=O)NC4=O)c(F)c3)CC2)c(F)cc1Nc1ncc(C(F)(F)F)c(Oc2cccc3c2C(=O)N(C)C3)n1 (stereo not shown) [GT-04035, N-(1-(4-(2,6-dioxopiperidin-3-yl)-3-fluorobenzyl)piperidin-4-yl)-2-fluoro-5-methoxy-4-((4-((2-methyl-3-oxoisoindolin-4-yl)oxy)-5-(trifluoromethyl)pyrimidin-2-yl)amino)benzamide]	–	A (A is defined as 0% ≤ substrate protein remaining % ≤ 80%)	40 to 53	80 to 100	IC50 [8]: 50 to 100 nM
CCc1cc2c(cc1N1CCC(N3CCN(Cc4ccc(N5CCC(=O)NC5=O)c(F)c4)CC3)CC1)C(C)(C)c1[nH]c3cc(C#N)ccc3c1C2=O [GT-07308, 8-(4-(4-(4-(2,4-dioxotetrahydropyrimidin-1(2H)-yl)-3-fluorobenzyl)piperazin-1-yl)piperidin-1-yl)-9-ethyl-6,6-dimethyl-11-oxo-6,11-dihydro-5H-benzo[b]carbazole-3-carbonitrile]	–	–	–	–	IC50 [9]: 500 to 1000 nM; IC50 [10, 13]: 10 to 50 nM; IC50 [11]: 500 to 1000 nM; IC50 [2, 14]: 10 to 50 nM
COc1cc(C(=O)NC2CCN(Cc3ccc(C4CCC(=O)NC4=O)cc3)CC2)c(F)cc1Nc1ncc(C(F)(F)F)c(Oc2cccc3c2C(=O)N(C)C3)n1 (stereo not shown) [GT-04034, N-(1-(4-(2,6-dioxopiperidin-3-yl)benzyl)piperidin-4-yl)-2-fluoro-5-methoxy-4-((4-((2-methyl-3-oxoisoindolin-4-yl)oxy)-5-(trifluoromethyl)pyrimidin-2-yl)amino)benzamide]	–	A (A is defined as 0% ≤ substrate protein remaining % ≤ 80%)	53 to 60	80 to 100	–
COc1cc(N2CCN(Cc3ccc(C4CCC(=O)NC4=O)cn3)CC2)ccc1Nc1ncc(Cl)c(Nc2ccccc2P(C)(C)=O)n1 (stereo not shown) [GT-07713, 3-(6-((4-(4-((5-chloro-4-((2-(dimethylphosphoryl)phenyl)amino)pyrimidin-2-yl)amino)-3-methoxyphenyl)piperazin-1-yl)methyl)pyridin-3-yl)piperidine-2,6-dione]	–	–	–	–	IC50 [10, 13]: 10 to 50 nM; IC50 [11]: 500 to 1000 nM; IC50 [2, 14]: 100 to 500 nM
CNC(=O)c1ccccc1Nc1cc(Nc2ccc(N3CCN(Cc4ccc(C5CCC(=O)NC5=O)cc4)CC3)cc2OC)ncc1C(F)(F)F (stereo not shown) [GT-03715, 2-((2-((4-(4-(4-(2,6-dioxopiperidin-3-yl)benzyl)piperazin-1-yl)-2-methoxyphenyl)amino)-5-(trifluoromethyl)pyridin-4-yl)amino)-N-methylbenzamide]	500 to 1000	A (A is defined as 0% ≤ substrate protein remaining % ≤ 80%)	10 to 20	60 to 80	IC50 [10, 15]: 100 to 500 nM; IC50 [12]: 100 to 500 nM; IC50 [6]: 500 to 1000 nM
CNC(=O)c1ccccc1Nc1cc(Nc2cc(C)c(N3CCN(Cc4ccc(C5CCC(=O)NC5=O)cc4)CC3)cc2OC(C)C)ncc1C(F)(F)F (stereo not shown) [GT-03946, 2-((2-((4-(4-(4-(2,6-dioxopiperidin-3-yl)benzyl)piperazin-1-yl)-2-isopropoxy-5-methylphenyl)amino)-5-(trifluoromethyl)pyridin-4-yl)amino)-N-methylbenzamide]	–	A (A is defined as 0% ≤ substrate protein remaining % ≤ 80%)	30 to 40	53 to 60	–
CNC(=O)c1ccccc1Nc1cc(Nc2ccc(N3CCN(Cc4ccc(C5CCC(=O)NC5=O)c(F)c4)CC3)cc2OC)ncc1C(F)(F)F (stereo not shown) [GT-03717, 2-((2-((4-(4-(4-(2,6-dioxopiperidin-3-yl)-3-fluorobenzyl)piperazin-1-yl)-2-methoxyphenyl)amino)-5-(trifluoromethyl)pyridin-4-yl)amino)-N-methylbenzamide]	500 to 1000	A (A is defined as 0% ≤ substrate protein remaining % ≤ 80%)	30 to 40	40 to 53	IC50 [1]: 500 to 1000 nM; IC50 [10, 15]: 100 to 500 nM; IC50 [12]: 100 to 500 nM
CNC(=O)c1ccccc1Nc1cc(Nc2cc(C)c(N3CCC(N(C)Cc4ccc(C5CCC(=O)NC5=O)c(F)c4)CC3)cc2OC(C)C)ncc1C(F)(F)F (stereo not shown) [GT-04095, 2-((2-((4-(4-((4-(2,6-dioxopiperidin-3-yl)-3-fluorobenzyl)(methyl)amino)piperidin-1-yl)-2-isopropoxy-5-methylphenyl)amino)-5-(trifluoromethyl)pyridin-4-yl)amino)-N-methylbenzamide]	–	A (A is defined as 0% ≤ substrate protein remaining % ≤ 80%)	20 to 30	60 to 80	–
